Article PMC12715805, “Screening apelin analogues and a small molecule agonist as effective cardiovascular therapeutics against reperfusion injury” (RSC Medicinal Chemistry, 2025)
Where a SMILES comes first, the peptide text is derived from it. [ ]: non-standard residue; d: D form. The star is where a group is joined. Phe(4-Br) = N[C@@H](Cc1ccc(Br)cc1)C(=O)O; PEG6 = NCCOCCOCCOCCOCCOCCOCCC(=O)O; NMeL = CN[C@@H](CC(C)C)C(=O)O; Nle = CCCC[C@H](N)C(=O)O; Cbz = O=C(OCc1ccccc1)*; Aib = CC(C)(N)C(=O)O

Experiments:
[1] = tested on: isolated mouse heart (ischemia–reperfusion injury); assay: Ex vivo Langendorff heart perfusion with ischemia–reperfusion; details: for cardioprotective effect / cardiac function recovery after ischemia–reperfusion (LVDP, RPP, max dP/dt, min dP/dt; in words): 1 μM in perfusion buffer for first 10 min of reperfusion after 30 min ischemia, compared to placebo, one-way ANOVA, Dunnett
human apelinR = target: T1, human apelinR (Homo sapiens, UniProt P35414); assay: ApelinR radioligand binding experiment (competition with [125I]-(Nle11,Tyr13) apelin-13); details: Fig. 1; membranes of CHO cells stably expressing hApelinR; 0.2 nM [125I]-(Nle11,Tyr13) apelin-13; 3 h at 20 °C; n = 4 to 6 independent experiments in duplicate; read-out: Binding affinity IC50 ± SEM
T1 construct: expressed in transfected cells; crude membrane preparations
T1 sequence (P35414 1-380): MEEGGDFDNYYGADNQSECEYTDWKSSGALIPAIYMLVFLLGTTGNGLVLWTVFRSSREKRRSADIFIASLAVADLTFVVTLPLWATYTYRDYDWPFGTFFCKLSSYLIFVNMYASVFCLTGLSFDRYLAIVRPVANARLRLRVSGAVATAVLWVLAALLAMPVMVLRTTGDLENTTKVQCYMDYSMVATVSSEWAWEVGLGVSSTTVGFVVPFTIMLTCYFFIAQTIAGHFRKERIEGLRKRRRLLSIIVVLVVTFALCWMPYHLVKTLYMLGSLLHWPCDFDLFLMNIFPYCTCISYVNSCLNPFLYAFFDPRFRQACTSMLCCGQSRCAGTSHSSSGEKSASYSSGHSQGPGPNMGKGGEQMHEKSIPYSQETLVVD
Description: Graphic is the compilation of n independent experiments performed in duplicate (n from 4 to 6). Error bars represent the SD of 4 to 6 independent experiments.
The reaction was stopped with cold 10 mM Hepes pH 7.5, 1 mM MgCl2 buffer and filtered on Whatman GF/C filters. After washing the filters, radioactivity was measured using a Wallac gamma counter.
APJ receptor agonist IC50 (nM)
Competition binding curves of different apelin receptor ligands. Membranes of CHO cells stably expressing the
concentrations of each ligand (from 1 pM to 10 µM).
in the absence of any unlabeled ligand. Graphic is a compilation of 4 independent experiments performed in duplicate.

[2] = tested on: wild-type male mice (C57BL/6); assay: Blood pressure lowering assay in anesthetized mice; assay type: in vivo, mouse; details: for hypotensive effect (BP lowering activity, in words): 0.5 μmol kg^−1 infusion during 5 min via jugular vein, anesthetized wild-type male C57BL/6 mice, compared to vehicle control
Description: The metabolically stable apelin analogues from each isoform, CbzPEG6–NMeLeu17A2 and NMeLeu13A2 along with the small molecule agonist, BMS-986224 (0.5 μmol kg^−1 infusion during 5 min for each compound), were tested for their BP lowering activity in anesthetized wild-type male mice (C57BL/6, 24–30 g). […] In contrast, the hypotensive effect of CbzPEG6–NMeLeu17A2 was observed immediately after infusion. This analogue reduced mean arterial pressure (MAP) by approximately 50% during the experiment, with the effect sustained for more than 30 minutes post-administration. Apelin can act on the endothelial layer of vasculature, leading to systemic changes in blood pressure by increasing the synthesis of nitric oxide (NO).[5] The effect of CbzPEG6–NMeLeu17A2 on […], which decreases the […] resistance by increasing eNOS activation and NO production through the activation of the PI3K/Akt signalling pathway on endothelial cells like other apelin analogues we tested in the previous studies.[5,11]
The blood pressure measurement and apelin injection method has been described in our previous research.[43] During the blood pressure testing, mice aged 12–14 weeks were anesthetized with 1.5% isoflurane in oxygen and monitored throughout the experiment. The blood pressure was measured using a PV loop catheter (model 1.2F, Transonic) […] into the left carotid artery. The monitor system (LabScribe 2.0. Scisense) recorded aortic blood pressure and heart rate. After a 20-minute baseline measurement, CbzPEG6–NMeLeu17A2, NMeLeu13A2, RI13, RI13A2, RI17, RI17A2, and BMS-986224 (0.5 μmol […] body weight) were diluted in saline and consistently infused for 5 min via the right jugular vein. For BMS-986224, 0.1% DMSO was added to saline to help with dilution. Blood pressure was continuously recorded for 60 minutes post-infusion.
3. Effects of APJ agonists on blood pressure
Figure S3. Different effects of apelin analog and receptor agonist on blood pressure and ischemia-reperfusion injury. A) the effect of CbzPEG6–NMeLeu17A2 (n=3) on mean arterial blood pressure (MAP), B) the effect of apelin 13 analog, NMeLeu13A2, on MAP (n=4). The effect of apelin 13 analog reverse enantiomers, C) RI13 (n=4) and D) RI13A2 (n=4), on MAP. The effect of apelin 17 reverse enantiomers, E) RI17 (n=4) and F) RI17A2 (n=4) on MAP. G) The effect of small molecule apelin receptor agonist BMS-986224 on blood pressure (n=4). The MAP recording between 50 and 60 minutes has been averaged and compared with their controls (placebo (n=4)). The vehicle for BMS-986224 is 0.1% DMSO (n=3). The arrow indicates the time when analogs were introduced. Values mean ±SEM and ****P<0.0001, compared to the control group.
(1 picture or pasted object on this page, not shown here)

rats = details: cited from earlier work
Source text: Another avenue being investigated is the use of small molecule as agonists for the apelinR, such as, Bristol Myers Squibb's BMS-986224,[26,27] Amgen's AMG986,[28] and Davenport's CMF-019.[29] […] In contrast, the two non peptidic apelinR agonists, BMS-98622 ...

apelinR = target: apelinR; design: method as in PMID 33663236; details: cited from earlier work
apelinR / human Gαi2 = target: T2, apelinR / human Gαi2 (Homo sapiens, UniProt P35414); assay: ebBRET Gαi2 activation; assay type: cell-based; details: HEK293 cells transfected with apelinR, human Gαi2, Rap1GAP-RlucII, rGFP-CAAX; 10 min at 37 °C; mean ± SEM of 5 to 6 independent experiments; read-out: Gαi2 activation log EC50 (converted)
T2 sequence (P35414 1-380): T1 sequence (P35414 1-380)

apelinR / β-arrestin1 = target: T3, apelinR / β-arrestin1 (Homo sapiens, UniProt P35414); assay: ebBRET β-arrestin1 recruitment; assay type: cell-based; details: HEK293 cells transfected with apelinR, β-arrestin1-RlucII, rGFP-CAAX; 10 min at 37 °C; mean ± SEM of 5 to 6 independent experiments; read-out: β-arr1 recruitment log EC50 (converted)
T3 sequence (P35414 1-380): T1 sequence (P35414 1-380)

apelinR / β-arrestin2 = target: T4, apelinR / β-arrestin2 (Homo sapiens, UniProt P35414); assay: ebBRET β-arrestin2 recruitment; assay type: cell-based; details: HEK293 cells transfected with apelinR, β-arrestin2-RlucII, rGFP-CAAX; 10 min at 37 °C; mean ± SEM of 5 to 6 independent experiments; read-out: β-arr2 recruitment log EC50 (converted)
T4 sequence (P35414 1-380): T1 sequence (P35414 1-380)

apelinR / human Gαi1 = target: T5, apelinR / human Gαi1 (Homo sapiens, UniProt P35414); assay: ebBRET Gαi1 activation; assay type: cell-based; details: HEK293 cells transfected with apelinR, human Gαi1, Rap1GAP-RlucII, rGFP-CAAX; 10 min at 37 °C; mean ± SEM of 5 to 6 independent experiments; read-out: Gαi1 activation log EC50 (converted)
T5 sequence (P35414 1-380): T1 sequence (P35414 1-380)

[3] = cited from earlier work
Source text: The apelinergic system is a regulator in cardiovascular function and has shown positive effects on myocardial contractility, vasodilation,[4,5] angiogenesis[6] and heart rate.[7] Apelin promotes vasodilation by stimulating nitric oxide (NO) production, with apelin potentiating phosphorylation of Akt and eNOS,[5,8] while its signalling through Akt and ERK pathways also helps regulate cardiac contractility and provides protection against cardiac hypertrophy.[9] Apelin peptide hormones are derived from a 77-residue pre-propeptide and exist as three major isoforms, differentiated by their length, ...

[4] = tested on: phospho-ERK1/2 (Thr202/Tyr204); assay: Western blot of ERK1/2 phosphorylation in left ventricular tissue after Langendorff ischemia–reperfusion; design: species or system mouse; details: n = 6 per group
Description: (§1) Fig. 4 Phosphorylation of Akt and ERK1/2 in left ventricular tissue following ischemia–reperfusion (IR) and treatment with apelin analogues. Protein lysates were analyzed by Western blotting and band intensities quantified by densitometry. (A) Representative Western blots for phosphorylated Akt (p-Akt, Ser473), total Akt, phosphorylated ERK1/2 (p-ERK1/2, Thr202/Tyr204), and total ERK1/2. (B) Quantification of p-Akt/Akt. (C) Quantification of p-ERK1/2/ERK1/2. Data are expressed in arbitrary units relative to aerobic perfusion (control) and presented as mean ± SEM (n = 6 per group). Statistical analysis was performed using one-way ANOVA with Tukey's multiple comparisons test. Symbol key: *p < 0.05 vs. aerobic perfusion; **p < 0.05 vs. aerobic perfusion and placebo; ***p < 0.05 vs. all other groups.
(§2) Protein expression was assessed by Western blot analysis. Left ventricular tissue samples from mice in the Langendorff protocol were homogenized in RIPA buffer supplemented with protease and phosphatase inhibitors (Thermo Fisher Scientific, Waltham, MA, USA). Lysates were cleared by centrifugation at 12 000 × g for 15 min at 4 °C, and protein concentration was determined by the BCA assay (Pierce, Thermo Fisher Scientific, Waltham, MA, USA). Equal amounts of protein (20 μg per lane) were separated on 10% SDS-polyacrylamide gels and transferred to polyvinylidene difluoride (PVDF) membranes (Immobilon-P, MilliporeSigma, Burlington, MA, USA). Membranes were blocked for 1 h at room temperature in 5% bovine serum albumin (BSA) prepared in Tris-buffered saline with 0.1% Tween-20 (TBST) and incubated overnight at 4 °C with the following primary antibodies (all from Cell Signaling Technology, Danvers, MA, USA): phospho-Akt (Ser473; #4060), total Akt (#2920), phospho-ERK1/2 (Thr202/Tyr204; #9101), and total ERK1/2 (#4696), each diluted 1 : 1000 in blocking buffer. […] Band intensities were quantified using ImageJ software (National Institutes of Health, Bethesda, MD, USA), and phosphorylated protein levels were normalized to their corresponding total protein.

phospho-Akt (Ser473) = assay: Western blot of Akt phosphorylation in left ventricular tissue after Langendorff ischemia–reperfusion; design: species or system mouse; details: n = 6 per group
Description: as §1, §2

Structure (SMILES): CCOCc1nc(O)c(-c2nnc(Cc3ccc(Cl)cn3)o2)c(O)c1-c1c(OC)cccc1OC [BMS-986224, reference compound]
- cardioprotective effect / cardiac function recovery after ischemia–reperfusion (LVDP, RPP, max dP/dt, min dP/dt; in words) [1]: failed to show significance in cardiac function recovery
- IC50 (human apelinR): 16.4 ± 5.42 nM
- hypotensive effect (BP lowering activity, in words) [2]: no hypotensive effect
- change in BP in a myocardial infarction (MI) rat model and a hypertension-induced cardiac dysfunction rat model (in words) (rats; MI rat model, hypertension-induced cardiac dysfunction rat model): do not induce any change in BP
- BP in anesthetized normotensive rats (in words) (rats; anesthetized normotensive rats, at the beginning of the infusion): slight but significant decrease in BP
- cardiac effects and blood pressure in a rat pressure–volume loop model (in words) (rats; rat pressure–volume loop model): positive cardiac effects without significantly lowering blood pressure
- Kd (apelinR): 0.3 nM
- EC50 (apelinR / human Gαi2): 0.11 nM
- EC50 (apelinR / β-arrestin1): 10.7 nM
- EC50 (apelinR / β-arrestin2): 8.91 nM
- EC50 (apelinR / human Gαi1): 0.102 nM

Structure (SMILES): CCCC[C@H](NC(=O)[C@@H]1CCCN1C(=O)CNC(=O)[C@H](CCCCN)NC(=O)[C@H](Cc1c[nH]cn1)NC(=O)[C@H](CO)NC(=O)[C@H](CC(C)C)N(C)C(=O)[C@H](CCCNC(=N)N)NC(=O)[C@@H]1CCCN1C(=O)[C@H](CCCNC(=N)N)NC(=O)[C@H](CCC(N)=O)NC(=O)[C@H](CCCNC(=N)N)NC(=O)[C@H](CCCNC(=N)N)NC(=O)[C@H](Cc1ccccc1)NC(=O)[C@H](CCCCN)NC(=O)CCOCCOCCOCCOCCOCCOCCNC(=O)OCc1ccccc1)C(=O)NC(C)(C)C(=O)N[C@@H](Cc1ccc(Br)cc1)C(=O)O [CbzPEG6–NMeLeu17A2] ({Cbz-PEG6}-KFRRQRPR[NMeL]SHKGP[Nle][Aib][Phe(4-Br)]-OH; C-terminus assumed)
- t1/2 in human plasma [3]: > 18 h
- cardioprotective effect / cardiac function recovery after ischemia–reperfusion (LVDP, RPP, max dP/dt, min dP/dt; in words) [1]: significant cardioprotective effect and positive inotropic effect
- cardiac recovery compared to the placebo treatment (left ventricle contractility, diastolic and systolic function) ([1]; 1 μM, 30 min ischemia, 40 min reperfusion, n = 7): nearly doubled
- ERK1/2 phosphorylation (p-ERK1/2/ERK1/2), mean difference versus NMeLeu13A2 ([4]; left ventricular tissue after IR, arbitrary units, p < 0.0001): −1.991
- ERK1/2 phosphorylation compared with control (in words) ([4]; left ventricular tissue after IR, p < 0.01 (NMeLeu13A2), p < 0.0001 (CbzPEG6–NMeLeu17A2)): significantly increased ERK1/2 phosphorylation
- ERK1/2 activation relative to IR (in words) ([4]; p < 0.0001): significant increase in ERK1/2 activation
- duration of hypotensive effect post-administration ([2]; 0.5 μmol kg^−1 infusion during 5 min, anesthetized C57BL/6 mice): more than 30 minutes
- reduction of mean arterial pressure (MAP) ([2]; 0.5 μmol kg^−1 infusion during 5 min, anesthetized C57BL/6 mice, n = 3): approximately 50%
- hypotensive effect (BP lowering activity, in words) [2]: significant hypotensive effect
- Akt phosphorylation (p-Akt/Akt), mean difference relative to control (phospho-Akt (Ser473); left ventricular tissue after IR and 1 μM treatment, arbitrary units relative to aerobic perfusion (control), both p < 0.0001): −8.857
- Akt phosphorylation (p-Akt/Akt), mean difference versus NMeLeu13A2 (phospho-Akt (Ser473); left ventricular tissue after IR, arbitrary units, p < 0.001): −4.018
- Akt phosphorylation compared with IR (in words) (phospho-Akt (Ser473); left ventricular tissue after IR, one-way ANOVA, Tukey): robust enhancement

Structure (SMILES): CCCC[C@H](NC(=O)[C@@H]1CCCN1C(=O)CNC(=O)[C@H](CCCCN)NC(=O)[C@H](Cc1c[nH]cn1)NC(=O)[C@H](CO)NC(=O)[C@H](CC(C)C)N(C)C(=O)[C@H](CCCNC(=N)N)NC(=O)[C@@H]1CCCN1C(=O)[C@H](CCCNC(=N)N)NC(=O)[C@@H]1CCC(=O)N1)C(=O)NC(C)(C)C(=O)N[C@@H](Cc1ccc(Br)cc1)C(=O)O [NMeLeu13A2]
- half-life in human plasma [3]: ~4 h
- EC50 (apelinR / human Gαi2): 0.0219 nM
- EC50 (apelinR / β-arrestin1): 1.23 nM
- EC50 (apelinR / β-arrestin2): 1.15 nM
- EC50 (apelinR / human Gαi1): 0.0339 nM
